The source of these data is patent US7507407B2, “Immunoliposomes that optimize internationalization into target cells” (The Regents of the University of California, priority 1994, dated 2009).

SMILES strings stand for the structures.

Data set [1] deals with WI-38 cells. The data set is described as follows: cytotoxicity of doxorubicin-loaded immunoliposomes, WI-38 cells. The class given is cell-based. The conditions noted are these: minimal p185^HER2.
Data set [2] concerns SK-BR-3 cells. The following applies: treated 1 hour, counted after 3 days, doxorubicin concentration.
Experimental: (A) SK-BR-3 cells. […] Cells in culture were treated for 1 hour with: conventional immunoliposomes (triangles); sterically stabilized (2 mole % PEG-PE) immunoliposomes (closed circles); control (irrelevant antibody) sterically stabilized (2 mole % PEG-PE) immunoliposomes (open circles); or free doxorubicin alone (closed squares). Immunoliposomes contained 60-70 μg antibody/μmol phospholipid and 55-80 μg doxorubicin/μmol phospholipid; antibody/doxorubicin ratio was 0.8-1.2. Cells were counted 3 days after treatment as described in Methods.
To test the cytotoxicity of doxorubicin-loaded immunoliposomes, SK-BR-3 or WI-38 cells in monolayer culture were incubated with free doxorubicin or doxorubicin-loaded immunoliposomes for 1 hour, and then washed extensively with media. The cells were then further incubated at 37° C. for 3 days, after which cell number was estimated by crystal violet staining as described above.

Regarding `COc1cccc2c1C(=O)c1c(O)c3c(c(O)c1C2=O)C[C@@](O)(C(=O)CO)C[C@@H]3O[C@H]1C[C@H](N)[C@H](O)[C@H](C)O1` [doxorubicin], the “cytotoxicity against WI-38 cells” value in data set [1] is “significant dose-dependent cytotoxicity”. For the same compound, the IC50 cytotoxicity result in data set [2] is on record as “approximately 0.3 μg/ml”.
